Measurements reported in patent US10646483B2, “Crystal form of imidazolone type compounds, and preparation method, pharmaceutical composition and use thereof” (Foreland Pharma Co., Ltd., priority 2016, dated 2020).
Like-named read-outs stand apart in the source and are kept apart here. Blank lines part the entries; values can stand above or below the compound they belong to.

Experiments:
[1] = Solid stability test of Crystal Form I (drug stability test box: high temperature, high humidity, strong illumination); type: physicochemical
Description: A small amount of Crystal Form I of Compound 1 hydrochloride monohydrate of Example I-1 was taken and placed in a drug stability test box. The conditions were controlled as listed in Table 1 for the stability test. The results of the purities and the contents are listed in Table I-1, and the results of the crystal form tests are shown in FIGS. 4 to 6.

[2] = Tableting stability test (XRPD before and after tableting); type: physicochemical; details: manually tableted, 8 mm tablets, ground, FIG. 7
Description: A small amount of Crystal Form I of Compound 1 hydrochloride monohydrate of Example 1 was taken and manually tableted to tablets with a diameter of 8 mm. The tablets were then gently ground. […] The XRPD patterns of the powders before and after the tableting of Crystal Form I were compared.

[3] = Test of dissolution rate in distilled water; type: physicochemical; details: 3 mg in 1 ml distilled water, shaken at 20-25° C. for 5 seconds
Experimental: 3 mg each of Crystal Form VII, Crystal Form I, and Crystal Form VI, were weighed, and put into three 1 ml plastic centrifuge tubes, respectively. To each tube was added 1 ml of distilled water and shaken at 20-25° C. for 5 seconds.

[4] = Metabolic experiments after oral (intragastric) administration to SD rats; type: in vivo; details: 10 mg/kg; for AUC(0-inf) / AUC(0-t) / MRT / Tmax / Cmax / half-life: rat, po
Experimental: 11.392 mg of Crystal Form I of Compound 1 hydrochloride was suspended in […] of 0.5% sodium carboxymethylcellulose, mixed to form a homogenous suspension, and then sonicated for 2 min to give a homogenous suspension having a concentration of 2 mg/mL (the suspension present was prepared on the day of administration, and stored for no more than 4 hours). Three SD rats were intragastrically administered at a dose of 10 mg/kg body weight, and blood analysis was performed at the set time points.

[5] = Active Pharmaceutical Ingredient, Initial
[6] = Illumination (4500 Lx ± 500 Lx), Day 5
[7] = Illumination (4500 Lx ± 500 Lx), Day 10
[8] = high temperature, high humidity and strong illumination, up to Day 10
[9] = SD (Sprague-Dawley), blood, SD rat, Rat 1
[10] = SD (Sprague-Dawley), blood, SD rat, Rat 2
[11] = SD (Sprague-Dawley), blood, SD rats, Average of three rats

Content % ([1]; 25° C./95% RH, Day 5): 100.86%
Impurity % ([1]; 25° C./95% RH, Day 5): 0.72%
Purity % ([1]; 25° C./95% RH, Day 5): 99.28%
Content % ([1]; 25° C./95% RH, Day 10): 99.61%
Impurity % ([1]; 25° C./95% RH, Day 10): 0.74%
Purity % ([1]; 25° C./95% RH, Day 10): 99.26%
Content % ([1]; 60° C., Day 5): 99.62%
Impurity % ([1]; 60° C., Day 5): 0.73%
Purity % ([1]; 60° C., Day 5): 99.27%
Content % ([1]; 60° C., Day 10): 99.51%
Impurity % ([1]; 60° C., Day 10): 0.79%
Purity % ([1]; 60° C., Day 10): 99.21%
Content % [1, 5]: 100.41%
Impurity % [1, 5]: 0.74%
Purity % [1, 5]: 99.26%
Content % [1, 6]: 99.84%
Impurity % [1, 6]: 0.93%
Purity % [1, 6]: 99.07%
Content % [1, 7]: 99.50%
Impurity % [1, 7]: 0.87%
Purity % [1, 7]: 99.13%
crystal form (XRPD) after stability test ([1]; high temperature, high humidity and strong illumination (FIGS. 4 to 6)): remains unchanged
fluctuation of the content [1, 8]: ≤ 1%
fluctuation of the purity [1, 8]: ≤ 0.2%
effect of tableting process on crystal form (XRPD) [2]: did not change
time to dissolve completely [3]: 5 h
time to dissolve substantially [3]: 2 h
AUC(0-inf) [4, 9]: 247 µg·h/mL
AUC(0-t) [4, 9]: 235 µg·h/mL
MRT [4, 9]: 6.74 h
Tmax [4, 9]: 2.8 h
Cmax ([4]; SD (Sprague-Dawley), blood, SD rat, Rat 1, read-out: Cmax): 19000 ng/mL
AUC(0-inf) [4, 10]: 192 µg·h/mL
AUC(0-t) [4, 10]: 183 µg·h/mL
MRT [4, 10]: 7.13 h
Tmax [4, 10]: 4 h
Cmax ([4]; SD (Sprague-Dawley), blood, SD rat, Rat 2, read-out: Cmax): 12100 ng/mL
half-life ([4]; SD (Sprague-Dawley), blood, SD rat, Rat 2, read-out: t½ (converted)): 5.4 h
half-life ([4]; SD (Sprague-Dawley), blood, SD rat, suspension in 0.5% sodium carboxymethylcellulose, Rat 1, read-out: t½ (converted)): 5.28 h
AUC(0-inf) [4, 11]: 201 µg·h/mL
AUC(0-t) [4, 11]: 191 µg·h/mL
MRT [4, 11]: 6.84 h
AUC Extr ([4]; SD rat, Rat 1): 4.72%
AUC/D ([4]; SD rat, Rat 1): 11758 ng·kg·h/mg/mL
AUC Extr ([4]; SD rat, Rat 2): 4.70%
AUC/D ([4]; SD rat, Rat 2): 9171 ng·kg·h/mg/mL
AUC Extr ([4]; SD rat, Rat 3): 5.96%
AUC/D ([4]; SD rat, Rat 3): 7675 ng·kg·h/mg/mL
AUC Extr ([4]; SD rats, Average of three rats): 5.13%
AUC/D ([4]; SD rats, Average of three rats): 9535 ng·kg·h/mg/mL
AUC(0-inf) ([4]; SD, plasma, SD rat, Rat 3): 163 µg·h/mL
AUC(0-t) ([4]; SD, plasma, SD rat, Rat 3): 154 µg·h/mL
MRT ([4]; SD, plasma, SD rat, Rat 3): 6.65 h
Tmax ([4]; SD, plasma, SD rat, Rat 3): 2.5 h
Cmax ([4]; SD, plasma, SD rat, Rat 3, read-out: Cmax): 12700 ng/mL
half-life ([4]; SD, plasma, SD rat, Rat 3, read-out: t½ (converted)): 5.81 h
Tmax ([4]; SD, plasma, SD rats, Average of three rats): 3.1 h
Cmax ([4]; SD, plasma, SD rats, Average of three rats, read-out: Cmax): 14600 ng/mL
half-life ([4]; SD, plasma, SD rats, Average of three rats, read-out: t½ (converted)): 5.5 h
AUC(0-t) ([4]; SD, plasma, SD rats, average value): 191 µg·h/mL
half-life ([4]; SD, plasma, SD rats, average value, read-out: half-life (converted)): 5.5 h
Cmax ([4]; SD, plasma, SD rats, average value, read-out: maximum plasma concentration (Cmax)): 14600 ng/mL
Compound: Cn1cc(-c2ccc(-c3ccc4ncc5c(c4c3)n([C@H]3CC[C@@H](O)CC3)c(=O)n5C)cn2)cn1 [Crystal Form I, 1-((1s,4s)-4-hydroxycyclohexyl)-3-methyl-8-(6-(1-methyl-1H-pyrazol-4-yl)pyridin-3-yl)-1H-imidazo[4,5-c]quinoline-2(3H)-one]

time to dissolve completely [3]: > 5 h
Compound: Cn1cc(-c2ccc(-c3ccc4ncc5c(c4c3)n([C@H]3CC[C@@H](O)CC3)c(=O)n5C)cn2)cn1 [Crystal Form VI, 1-((1s,4s)-4-hydroxycyclohexyl)-3-methyl-8-(6-(1-methyl-1H-pyrazol-4-yl)pyridin-3-yl)-1H-imidazo[4,5-c]quinoline-2(3H)-one]

time to dissolve completely [3]: ≤ 0.00278 h
Compound: Cn1cc(-c2ccc(-c3ccc4ncc5c(c4c3)n([C@H]3CC[C@@H](O)CC3)c(=O)n5C)cn2)cn1 [Crystal Form VII, 1-((1s,4s)-4-hydroxycyclohexyl)-3-methyl-8-(6-(1-methyl-1H-pyrazol-4-yl)pyridin-3-yl)-1H-imidazo[4,5-c]quinoline-2(3H)-one]
